This assay concerns Bacillus atrophaeus ATCC 9372 spores. Nature of the assay: Spore inactivation by 3.25 wt. % performic acid at various times and temperatures. Format: cell-based. The note with it: for Colony Forming Units (CFU) / Log Reduction: 3.25 wt. % performic acid. From the text:
An aqueous solution containing x weight percent of performic acid may be prepared by (1) diluting a commercially available aqueous solution of hydrogen peroxide (e.g., a 30 weight percent aqueous solution or a 50 weight percent aqueous solution) down to a concentration of 2x; (2) diluting a commercially available aqueous solution of formic acid (e.g., a 95 weight percent aqueous solution) down to a concentration of 2x; and (3) combining the diluted solution of hydrogen peroxide and the diluted solution of formic acid in a 1:1 volume, thereby providing performic acid in a concentration of x.
The procedure for performing spore inactivation tests in solution is as follows: Bacillus atrophaeus ATCC 9372 spores in saline were equilibrated in a water bath at the preselected test temperature, as was a formic acid/hydrogen peroxide mixture. At an initial time (T0), a volume of the formic acid/peroxide mixture was added to the spore preparation, such that the pre-chosen test concentration of the sterilization agent was achieved. At preselected times after the addition of the sterilization agent to the spore preparation, aliquots of the spore-treated mixture were transferred into a solution containing an excess of catalase (MP Biomedical) in order to quench the peroxide reaction. This solution was then serially ten-fold diluted and spread-plated onto tryptic soy agar plates that were subsequently incubated at 35° C. for 48 hours and enumerated.
An aqueous solution containing 3.25 wt. % of performic acid was prepared by (1) diluting a 50 wt. % aqueous solution of hydrogen peroxide down to a concentration of 6.5 wt. %; (2) diluting a 95 wt. % aqueous solution of formic acid down to a concentration of 6.5 wt. %; and (3) combining the 6.5 wt. % solution of hydrogen peroxide and the 6.5 wt. % solution of formic acid in a 1:1 volume.

For performic acid, the “Colony Forming Units (CFU)” value (10° C., 5 seconds) is on record as 0 CFU; the “Colony Forming Units (CFU)” value (10° C., 10 seconds) is recorded as 0 CFU; the “Colony Forming Units (CFU)” value (10° C., 15 seconds) is given as 0 CFU; the “Colony Forming Units (CFU)” value (20° C., 5 seconds) is 0 CFU; the “Colony Forming Units (CFU)” value (20° C., 10 seconds) is 0 CFU; the “Colony Forming Units (CFU)” value (20° C., 15 seconds) was determined as 0 CFU. For the same substance, the “Log Reduction” value reads like this: (10° C., 5 seconds) >7.8; (10° C., 10 seconds) >7.8; (10° C., 15 seconds) >7.8; (20° C., 5 seconds) >8; (20° C., 10 seconds) >8; (20° C., 15 seconds) >8. Further, where the note is “room temperature and below (e.g., 5° C. or 10° C.), exposure times as little as 5 seconds”, the “effectiveness in killing spores (in words)” value was “surprisingly and unexpectedly effective”.

The record behind these values is patent US9814796B2, “Methods for sterilization and/or disinfection” (P[…] OF NEVADA, LLC, priority 2015, dated 2017).
